In patent publication US11173144B2, “Adrenergic receptor modulating compounds and methods of using the same” (The Board of Trustees of the Leland Stanford Junior …, priority 2016, dated 2021):
Like-named read-outs stand apart in the source and are kept apart here.

Assays:
[1] = molecular target: T1, ADRB1 (Homo sapiens (Human), UniProt P08588); experiment: cAMP assay (homogenous time-resolved fluorescence) in HEK-293 cells stably expressing human recombinant ADRB1; format: cell-based; details: for Emax: HEK293, 0.5 h, percent efficacy compared to the maximum response achieved with isoproterenol, read-out: cAMP pathway % Iso max
T1 sequence (P08588 whole entry): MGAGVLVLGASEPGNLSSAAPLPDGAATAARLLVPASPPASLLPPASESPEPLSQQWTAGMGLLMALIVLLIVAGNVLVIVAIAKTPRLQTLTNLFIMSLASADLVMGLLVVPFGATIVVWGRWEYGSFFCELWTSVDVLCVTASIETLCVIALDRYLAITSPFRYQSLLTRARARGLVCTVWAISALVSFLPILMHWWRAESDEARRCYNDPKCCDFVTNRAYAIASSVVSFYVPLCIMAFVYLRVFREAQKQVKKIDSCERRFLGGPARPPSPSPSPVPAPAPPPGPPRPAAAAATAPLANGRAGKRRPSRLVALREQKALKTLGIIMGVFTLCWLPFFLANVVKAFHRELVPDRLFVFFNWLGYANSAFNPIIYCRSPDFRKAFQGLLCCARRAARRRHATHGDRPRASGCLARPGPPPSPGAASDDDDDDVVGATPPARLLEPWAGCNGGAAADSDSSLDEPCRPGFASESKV
Procedure: Pharmacological effects of compounds at the cAMP pathway mediated by ADRB1 are evaluated by measuring cAMP production using the homogenous time-resolved fluorescence detection method with HEK-293 cells stably expressing human recombinant ADRB1. Briefly, cells are suspended in HBSS buffer completed with 20 mM HEPES (pH 7.4) and 500 μM IBMX (3-isobutyl-1-methylxanthine) and distributed at a density of 3×10^3 cells/well. […] The results are expressed as a percent of the maximum efficacy achieved with isoproterenol. Pharmacological effects of compounds at the cAMP pathway mediated by ADRB2 and ADRB3 are measured as described above using CHO cells stably expressing human recombinant ADRB2 and human SK-N-MC neurotumor cells endogenously expressing ADRB3, respectively.
After 30 minute incubation with compounds, the cells are lysed and the fluorescence donor (Europium-chelated-labeled cAMP tracer; Eu-cAMP tracer) and fluorescence acceptor (cAMP-specific monoclonal antibodies labeled with the ULight™ dye) are added. […] The results are expressed as a percent of the control response to 10 μM isoproterenol. For subtype selectivity determination, same procedure is performed using Chinese hamster ovary (CHO) cells stably expressing human β2-adrenergic receptors or SK-N-MC human neuroblastoma cell line expressing β3-adrenergic receptors.
(§1) ADRB1 EC50 from functional assay (nM)^a, Determined using the homogenous time-resolved fluorescence detection method with HEK-293 cells stably expressing human recombinant ADRB1. ADRB2 IC50 from binding assay(nM)^b, Determined using the Tag-lite Adrenoceptor Beta2 receptor ligand binding assay.

[2] = molecular target: T1, ADRB1; experiment: β-arrestin assay (PathHunter enzyme fragment complementation, CHO-K1-ADRB1 cells); format: cell-based; details: for β-arrestin pathway % Iso max: percent efficacy compared to the maximum response achieved with isoproterenol; for concentration-dependent response at the β-arrestin pathway: up to 30 μM
Procedure: Pharmacological activity of compounds in the β-arrestin pathway mediated by ADRB1 are evaluated using an enzyme fragment complementation method with a β-galactosidase functional reporter. An engineered CHO-K1-ADRB1 PathHunter cell line (DiscoveRx) is used in the assay. In this cell line, enzyme acceptor (β-galactosidase fragment) is fused to β-arrestin and enzyme donor (β-galactosidase fragment) is fused to the ADRB1. Thus, activation of the ADRB1 stimulates binding of β-arrestin to the ProLink-tagged ADRB1 and forces complementation of the two enzyme fragments, resulting in the formation of an active β-galactosidase enzyme. Briefly, CHO-K1-ADRB1 PathHunter cell lines are plated in a total volume of 20 μL cell plating reagent (DiscoveRx, 93-0563R0A) at a density of 2,500 cells/well into 384 well microplates and incubated overnight at 37° C. in 5% CO2. […] Chemiluminescent signal is then read with a PerkinElmer Envision™ instrument. The results are expressed as a percent of the maximum efficacy achieved with isoproterenol.
Effects of compounds on β-arrestin signaling pathways are determined using CHO cells stably expressing human β1-adrenergic receptors or human β2-adrenergic receptors with PathHunter® β-Arrestin GPCR assay system (DiscoveRx). In this system, adrenergic receptor is fused in frame with the small enzyme fragment ProLink™ and co-expressed in cell stably expressing at fusion protein of β-arrestin and the larger, N-terminal deletion mutant of β-galactosidase enzyme. Activation of the adrenergic receptor stimulates binding of β-arrestin to the ProLink-tagged receptor and forces complementation of the two enzyme fragments, resulting in the formation of an active β-gal enzyme. This interaction leads to an increase in enzyme activity that can be measured using chemiluminescent detection reagents. The effects of compounds on β-arrestin signaling pathways are determined 90 minutes after incubating the cells with the test compounds.

[3] = molecular target: ADRB2 (Homo sapiens (Human), UniProt P07550); experiment: Tag-lite Adrenoceptor Beta2 receptor ligand binding assay; details: Table 7; read-out: ADRB2 IC50 from binding assay
Sequence of ADRB2 (P07550 whole entry): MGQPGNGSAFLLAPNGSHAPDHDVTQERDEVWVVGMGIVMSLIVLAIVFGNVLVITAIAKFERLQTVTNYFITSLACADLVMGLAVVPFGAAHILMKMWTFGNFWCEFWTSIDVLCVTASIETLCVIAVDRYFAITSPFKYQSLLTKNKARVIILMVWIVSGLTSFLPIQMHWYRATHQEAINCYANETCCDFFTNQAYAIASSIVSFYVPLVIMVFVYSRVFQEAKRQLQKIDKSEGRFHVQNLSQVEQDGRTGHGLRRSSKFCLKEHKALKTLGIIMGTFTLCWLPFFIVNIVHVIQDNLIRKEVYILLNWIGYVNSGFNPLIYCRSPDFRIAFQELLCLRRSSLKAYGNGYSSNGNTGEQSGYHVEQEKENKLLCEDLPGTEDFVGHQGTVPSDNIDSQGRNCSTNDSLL
Procedure: as §1, with “The subtype selective activity of some compounds of interest was assessed for adrenergic receptor beta 1 (ADRB1) versus adrenergic receptor beta 2 (ADRB2). ADRB1 EC50” for “ADRB1 EC50”

[4] = test system: C57BI/6J female mice; experiment: 24 day administration, lung and heart weight and fibrosis; format: in vivo; details: 10 mg/kg for 24 days
Procedure: C57BI/6J female mice were administered with isoproterenol, KSN01-01-15, or KSN01-01-18 at 10 mg/kg for 24 days. After 24 days of treatment, mice were sacrificed, and lung and heart weight were measured. Hearts were then fixed in 10% formalin, and stained with Masson trichrome for evaluation of fibrosis.

[5] = Table 3, read-out: cAMP pathway ADRB1 EC50
[6] = Table 4, read-out: cAMP pathway ADRB1 EC50
[7] = Table 4, read-out: β-arrestin pathway ADRB1 EC50
[8] = Table 7, read-out: ADRB1 EC50 from functional assay

Row | Emax ([1]; Table 4) [%] | EC50 [1, 6] [nM] | EC50 [1, 8] [nM] | IC50 [3] [nM] | SMILES | other results
1 |  |  |  |  | O=C(NCCNC[C@H](O)COc1cc(F)c(O)cc1F)N1CCOCC1 [Compound 28] | Emax ([1]; Table 3): 21.5 ± 0.5%; EC50 [1, 5]: 1 to 10 nM
2 |  |  |  |  | N#Cc1cc(OC[C@@H](O)CNCCNC(=O)N2CCOCC2)ccc1O [Compound 29] | EC50 [1, 5]: 1 to 10 nM
3 | 60.2 ± 9.9 | 100 to 1000 |  |  | COc1ccc(CCOCCNC[C@H](O)COc2ccc(O)cc2)cc1OC [Compound 44] | β-arrestin pathway % Iso max ([2]; Table 4): 14%; EC50 [2, 7]: 100 to 1000 nM
4 | 71.9 ± 1.3 | 10 to 100 |  |  | O=C(CCCNC[C@H](O)COc1ccc(O)cc1)N1CCOCC1 [Compound 45] | β-arrestin pathway % Iso max ([2]; Table 4): 18.6%; EC50 [2, 7]: 100 to 1000 nM
5 | 73.9 ± 10.2 | 100 to 1000 |  |  | O=C(CCNC[C@H](O)COc1ccc(O)cc1)N1CCOCC1 [Compound 46] | β-arrestin pathway % Iso max ([2]; Table 4): 13.7%; EC50 [2, 7]: 10 to 100 nM
6 | 42 ± 2.4 | 100 to 1000 |  |  | O=C(NCCNC[C@H](O)COc1ccc(O)cc1)N1CC(O)C1 [Compound 47] | concentration-dependent response at the β-arrestin pathway [2]: did not produce concentration-dependent response up to 30 μM
7 | 40.1 ± 3.9 |  |  |  | O=C(NCCNC[C@H](O)COc1ccc(O)cc1)N1CC(CO)C1 [Compound 48] | concentration-dependent response at the β-arrestin pathway [2]: did not produce concentration-dependent response up to 30 μM
8 |  | 1 to 10 |  |  | COc1ccc(CCNCC(O)COc2ccc(O)c(O)c2)cc1OC (stereo not drawn) [Compound 50] | agonistic activity on the ADRB1-mediated cAMP pathway [1]: full agonistic activity; efficacy at the β-arrestin pathway compared to the full agonist isoproterenol [2]: 36.5%; β-arrestin pathway % Iso max ([2]; Table 4): 36.5%; EC50 [2, 7]: 10 to 100 nM; EC50 ([2]; read-out: EC50 at the β-arrestin pathway via ADRB1): 32.2 nM
9 |  |  | 9.2 | 0.024 | COc1ccccc1OCCNC[C@H](O)COc1cccc2[nH]nc(C)c12 [Compound 52] | 
10 |  |  | 35.4 | 0.38 | COc1ccc(OCCNC[C@H](O)COc2cccc3[nH]nc(C)c23)cc1OC [Compound 55] | 
11 |  |  | 1 | 0.048 | Cc1n[nH]c2cccc(OC[C@@H](O)CNCCc3ccccc3C(F)(F)F)c12 [Compound 69] | 
12 |  |  | 3.5 | 0.065 | Cc1n[nH]c2cccc(OC[C@@H](O)CNC(C)(C)C)c12 [Compound 75] | fibrotic changes in heart and heart weight [4]: did not induce these changes; fibrotic changes in lung and lung weight [4]: did not induce these changes; morphological changes in heart [4]: did not induce these changes
13 |  |  | 44.7 | 0.144 | Cc1n[nH]c2cccc(OC[C@@H](O)CNC(C)(C)COc3ccccn3)c12 [Compound 86] | 
14 |  |  | 5 | 0.23 | Cc1n[nH]c2cccc(OC[C@@H](O)CNCCOc3ccccn3)c12 [Compound 87] | 
15 |  |  | 3.4 | 0.019 | COCC(C)(C)NC[C@H](O)COc1cccc2[nH]nc(C)c12 [Compound 90] | 

Row | SMILES | Emax ([1]; Table 4) [%] | EC50 [1, 6] [nM] | EC50 [1, 8] [nM] | IC50 [3] [nM] | other results
16 | COc1ccccc1CC(C)NC[C@H](O)COc1cccc2[nH]nc(C)c12 (stereo partly drawn) [Compound 72] |  |  |  | 0.009 | EC50 [1]: 0.8 nM
